In one test the target is T1, Human CaV2.2 channels (Homo sapiens, UniProt Q00975).
T1 construct: expressed in transfected cells
T1 sequence (P54289 947-1103): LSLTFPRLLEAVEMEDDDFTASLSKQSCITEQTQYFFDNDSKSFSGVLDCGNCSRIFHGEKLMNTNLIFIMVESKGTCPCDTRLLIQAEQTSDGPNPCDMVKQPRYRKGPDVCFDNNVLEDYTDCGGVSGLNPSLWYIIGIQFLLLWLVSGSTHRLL
T1 sequence (P54289 25-946): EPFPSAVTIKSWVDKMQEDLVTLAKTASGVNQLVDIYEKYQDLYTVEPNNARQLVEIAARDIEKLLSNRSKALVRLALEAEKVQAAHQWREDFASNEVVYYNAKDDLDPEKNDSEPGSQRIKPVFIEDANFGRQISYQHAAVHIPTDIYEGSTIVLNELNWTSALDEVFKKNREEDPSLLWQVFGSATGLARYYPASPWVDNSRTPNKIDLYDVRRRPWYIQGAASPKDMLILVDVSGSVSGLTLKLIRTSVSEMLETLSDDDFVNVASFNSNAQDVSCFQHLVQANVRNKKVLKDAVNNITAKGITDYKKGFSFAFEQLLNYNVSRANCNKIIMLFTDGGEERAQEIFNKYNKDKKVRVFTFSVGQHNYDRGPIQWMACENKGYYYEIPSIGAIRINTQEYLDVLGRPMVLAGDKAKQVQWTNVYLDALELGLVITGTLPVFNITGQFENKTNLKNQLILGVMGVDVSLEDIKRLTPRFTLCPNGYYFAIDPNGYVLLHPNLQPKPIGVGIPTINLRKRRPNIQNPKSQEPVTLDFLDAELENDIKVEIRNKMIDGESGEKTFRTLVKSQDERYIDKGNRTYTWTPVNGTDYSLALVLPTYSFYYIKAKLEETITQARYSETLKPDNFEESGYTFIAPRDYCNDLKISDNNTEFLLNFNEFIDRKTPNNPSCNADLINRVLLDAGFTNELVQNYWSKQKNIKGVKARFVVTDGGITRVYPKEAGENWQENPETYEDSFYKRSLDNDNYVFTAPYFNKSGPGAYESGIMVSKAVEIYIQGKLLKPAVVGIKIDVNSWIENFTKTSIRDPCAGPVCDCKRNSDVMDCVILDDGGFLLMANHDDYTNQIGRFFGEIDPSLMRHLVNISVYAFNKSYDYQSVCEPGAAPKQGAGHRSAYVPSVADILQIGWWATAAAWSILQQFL
T1 sequence (P54284 whole entry, further chain): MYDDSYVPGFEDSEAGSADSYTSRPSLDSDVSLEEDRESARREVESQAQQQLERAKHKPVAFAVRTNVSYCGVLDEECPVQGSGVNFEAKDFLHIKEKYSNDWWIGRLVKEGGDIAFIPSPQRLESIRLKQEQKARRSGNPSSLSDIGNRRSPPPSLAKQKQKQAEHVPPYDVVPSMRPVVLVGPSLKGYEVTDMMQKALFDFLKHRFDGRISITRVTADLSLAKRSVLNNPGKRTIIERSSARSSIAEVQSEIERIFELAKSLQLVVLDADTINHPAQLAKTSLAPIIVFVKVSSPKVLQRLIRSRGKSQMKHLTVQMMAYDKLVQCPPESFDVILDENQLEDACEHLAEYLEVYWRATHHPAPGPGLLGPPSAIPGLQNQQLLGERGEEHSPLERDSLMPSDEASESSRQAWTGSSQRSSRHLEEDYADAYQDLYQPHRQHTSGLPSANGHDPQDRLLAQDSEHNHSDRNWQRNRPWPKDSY
T1 sequence (Q00975 whole entry): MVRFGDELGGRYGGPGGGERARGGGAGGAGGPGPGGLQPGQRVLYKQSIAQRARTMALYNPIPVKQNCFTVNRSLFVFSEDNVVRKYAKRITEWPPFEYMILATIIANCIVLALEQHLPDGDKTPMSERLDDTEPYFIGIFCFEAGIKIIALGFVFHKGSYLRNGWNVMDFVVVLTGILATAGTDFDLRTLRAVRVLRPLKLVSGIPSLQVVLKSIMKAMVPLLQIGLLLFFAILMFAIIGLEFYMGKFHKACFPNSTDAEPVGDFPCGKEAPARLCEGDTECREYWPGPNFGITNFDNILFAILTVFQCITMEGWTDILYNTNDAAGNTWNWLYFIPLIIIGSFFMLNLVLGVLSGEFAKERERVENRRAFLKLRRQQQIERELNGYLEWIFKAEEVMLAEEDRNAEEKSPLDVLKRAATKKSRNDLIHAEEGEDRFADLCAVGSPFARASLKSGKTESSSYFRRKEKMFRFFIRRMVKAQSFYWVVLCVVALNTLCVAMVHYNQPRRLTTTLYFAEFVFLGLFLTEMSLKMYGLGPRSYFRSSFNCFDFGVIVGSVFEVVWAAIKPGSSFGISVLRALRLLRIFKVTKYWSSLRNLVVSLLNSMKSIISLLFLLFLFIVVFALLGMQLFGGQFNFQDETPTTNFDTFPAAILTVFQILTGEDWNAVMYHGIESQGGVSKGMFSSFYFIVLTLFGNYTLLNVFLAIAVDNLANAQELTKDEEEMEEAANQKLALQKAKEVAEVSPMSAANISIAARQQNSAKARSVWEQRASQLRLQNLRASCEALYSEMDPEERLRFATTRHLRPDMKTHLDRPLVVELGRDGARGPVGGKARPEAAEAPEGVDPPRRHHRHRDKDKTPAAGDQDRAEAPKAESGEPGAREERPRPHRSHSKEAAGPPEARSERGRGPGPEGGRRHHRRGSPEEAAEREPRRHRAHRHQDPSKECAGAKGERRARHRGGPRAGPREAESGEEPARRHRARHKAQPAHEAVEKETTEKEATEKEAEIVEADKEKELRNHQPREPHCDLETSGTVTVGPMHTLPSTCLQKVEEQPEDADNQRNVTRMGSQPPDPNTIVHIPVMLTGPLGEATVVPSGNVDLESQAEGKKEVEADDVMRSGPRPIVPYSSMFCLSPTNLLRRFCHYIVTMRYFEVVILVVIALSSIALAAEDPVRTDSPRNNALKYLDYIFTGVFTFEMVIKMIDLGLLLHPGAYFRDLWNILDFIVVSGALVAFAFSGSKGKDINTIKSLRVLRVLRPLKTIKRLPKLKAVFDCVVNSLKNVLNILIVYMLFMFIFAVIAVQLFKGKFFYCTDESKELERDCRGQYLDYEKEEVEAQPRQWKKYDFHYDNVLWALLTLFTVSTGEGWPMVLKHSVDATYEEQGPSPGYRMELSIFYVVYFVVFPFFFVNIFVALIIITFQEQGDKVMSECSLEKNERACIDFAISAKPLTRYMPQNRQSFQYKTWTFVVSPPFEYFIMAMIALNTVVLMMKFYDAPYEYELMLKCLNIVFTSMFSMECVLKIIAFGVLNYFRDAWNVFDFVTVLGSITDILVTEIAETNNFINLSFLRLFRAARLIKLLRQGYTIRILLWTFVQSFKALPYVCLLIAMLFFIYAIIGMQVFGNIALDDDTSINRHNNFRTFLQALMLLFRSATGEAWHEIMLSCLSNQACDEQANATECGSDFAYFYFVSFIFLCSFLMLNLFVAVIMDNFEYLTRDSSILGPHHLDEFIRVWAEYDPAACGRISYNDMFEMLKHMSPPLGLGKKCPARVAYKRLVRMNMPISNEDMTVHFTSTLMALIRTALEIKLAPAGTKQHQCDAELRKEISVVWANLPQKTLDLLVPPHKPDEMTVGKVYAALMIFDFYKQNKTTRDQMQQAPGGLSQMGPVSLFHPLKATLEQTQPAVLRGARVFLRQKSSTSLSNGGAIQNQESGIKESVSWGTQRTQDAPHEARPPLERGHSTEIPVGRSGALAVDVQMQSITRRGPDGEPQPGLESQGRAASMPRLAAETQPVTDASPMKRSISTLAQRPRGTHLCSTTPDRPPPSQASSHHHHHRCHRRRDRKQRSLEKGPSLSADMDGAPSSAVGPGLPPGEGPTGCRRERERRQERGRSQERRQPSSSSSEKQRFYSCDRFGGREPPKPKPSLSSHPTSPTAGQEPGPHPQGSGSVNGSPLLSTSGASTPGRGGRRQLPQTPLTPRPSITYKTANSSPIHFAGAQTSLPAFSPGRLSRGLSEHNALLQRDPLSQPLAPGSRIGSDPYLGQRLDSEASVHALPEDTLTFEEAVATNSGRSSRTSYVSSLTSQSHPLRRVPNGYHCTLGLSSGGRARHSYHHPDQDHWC
Kind of test: Fluorescence assay for CaV2.2 channels using potassium depolarization to induce channel opening (FLIPR, Fluo 4). Type of test: cell-based. Conditions: 3 μM test compound; alternative assay buffer 30 mM KCl (inactivated channel state); HEK293 cells stably expressing human CaV2.2. In short, it runs like this:
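HEK293 cells stably co-expressing CaV2.2 with alpha2-delta and beta subunits plus Kir2.3, loaded with 2 μM Fluo 4 and pre-incubated 15 min at 25° C with compound in 1 mM or 30 mM KCl buffer (pH 7.4; latter promotes inactivated state). Depolarized by KCl addition; peak fluorescence amplitude normalized to baseline gives inhibition.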
For the compound `CC1(S(=O)(=O)c2cccc(OC(F)(F)F)c2)CCOC(c2ncc(S(C)(=O)=O)cc2Cl)C1` (centres unmarked) [SC-219, 3-Chloro-5-methylsulfonyl-2-[4-methyl-4-[[3-(trifluoromethyloxy)-phenyl]sulfonyl]-tetrahydro-pyran-2-yl]-pyridine], the “Activity Category: %-Inhib (CaV2.2) @3 μM @30 mM KCl” value (“Activity Category: %-Inhib” for short) is given as “A (%-Inhibition >95%)”. Same read-out and setting: the same measure for `CC1(S(=O)(=O)c2cccc(OC(F)(F)F)c2)CCOC(c2ncc(C(F)(F)F)cc2S(C)(=O)=O)C1` (centres unmarked) [SC-221, 3-Methylsulfonyl-2-[4-methyl-4-[[3-(trifluoromethyloxy)-phenyl]sulfonyl]-tetrahydro-pyran-2-yl]-5-(trifluoromethyl)-pyridine]: “B (%-Inhibition >75% up to ≤95%)”; for `C[S+]([O-])c1cc(C(F)(F)F)cnc1C1CC(C)(S(=O)(=O)c2cccc(C(F)(F)F)c2)CCO1` (centres unmarked) [SC-229, 3-(Methylsulfinyl)-2-[4-methyl-4-[[3-(trifluoromethyl)phenyl]sulfonyl]-tetrahydro-pyran-2-yl]-5-(trifluoromethyl)-pyridine]: “B (%-Inhibition >75% up to ≤95%)”.

For the compound `C[S+]([O-])c1cc(C(F)(F)F)cnc1C1CC(C)(S(=O)(=O)c2cccc(C(F)(F)F)c2)CCO1` (centres unmarked) [SC-230, 3-(Methylsulfinyl)-2-[4-methyl-4-[[3-(trifluoromethyl)phenyl]sulfonyl]-tetrahydro-pyran-2-yl]-5-(trifluoromethyl)-pyridine], the “Activity Category: %-Inhib” value is reported as “B (%-Inhibition >75% up to ≤95%)”.

With `C[S+]([O-])c1cc(C(F)(F)F)cnc1C1CC(C)(S(=O)(=O)c2cccc(C(F)(F)F)c2)CCO1` (centres unmarked) [SC-231, 3-(Methylsulfinyl)-2-[4-methyl-4-[[3-(trifluoromethyl)phenyl]sulfonyl]-tetrahydro-pyran-2-yl]-5-(trifluoromethyl)-pyridine], the “Activity Category: %-Inhib” value is recorded as “B (%-Inhibition >75% up to ≤95%)”. For the compound `CCC1(S(=O)(=O)c2cccc(C(F)(F)F)c2)CCOC(c2nnc(C(F)(F)F)o2)C1` (centres unmarked) [SC-240, 2-[4-Ethyl-4-[[3-(trifluoromethyl)phenyl]sulfonyl]-tetrahydro-pyran-2-yl]-5-(trifluoromethyl)-[1,3,4]oxadiazole], the “Activity Category: %-Inhib” value is recorded as “C (%-Inhibition >40% up to ≤75%)”. The same measure, in the same setting: the same measure for `CCC1(S(=O)(=O)c2cccc(C(F)(F)F)c2)CCOC(c2nnc(C(F)(F)F)o2)C1` (centres unmarked) [SC-241, 2-[4-Ethyl-4-[[3-(trifluoromethyl)phenyl]sulfonyl]-tetrahydro-pyran-2-yl]-5-(trifluoromethyl)-[1,3,4]oxadiazole]: “B (%-Inhibition >75% up to ≤95%)”; for `CC1(S(=O)(=O)c2cccc(C(F)(F)F)c2)CCOC(c2ccc(Cl)cn2)C1` (centres unmarked) [SC-244, 5-Chloro-2-[4-methyl-4-[[3-(trifluoromethyl)phenyl]sulfonyl]-tetrahydro-pyran-2-yl]-pyridine]: “B (%-Inhibition >75% up to ≤95%)”. On the same count and under the same terms, the same measure for `COc1cc(OC)c(C2CC(C)(S(=O)(=O)c3cccc(C(F)(F)F)c3)CCO2)cn1` (centres unmarked) [SC-246, 2,4-Dimethoxy-5-[4-methyl-4-[[3-(trifluoromethyl)phenyl]sulfonyl]-tetrahydro-pyran-2-yl]-pyridine]: “A (%-Inhibition >95%)”; for `COc1cc(OC(F)F)c(C2CC(C)(S(=O)(=O)c3cccc(C(F)(F)F)c3)CCO2)cn1` (centres unmarked) [SC-254, 4-(Difluoro-methoxy)-2-methoxy-5-[4-methyl-4-[[3-(trifluoromethyl)phenyl]sulfonyl]-tetrahydro-pyran-2-yl]-pyridine]: “A (%-Inhibition >95%)”.

With `COc1ncc(C2CC(C)(S(=O)(=O)c3cccc(C(F)(F)F)c3)CCO2)cc1F` (centres unmarked) [SC-256, 3-Fluoro-2-methoxy-5-[4-methyl-4-[[3-(trifluoromethyl)phenyl]sulfonyl]-tetrahydro-pyran-2-yl]-pyridine], the “Activity Category: %-Inhib” value is reported as “B (%-Inhibition >75% up to ≤95%)”.

Regarding `COc1cc(F)c(C2CC(C)(S(=O)(=O)c3cccc(C(F)(F)F)c3)CCO2)cn1` (centres unmarked) [SC-258, 4-Fluoro-2-methoxy-5-[4-methyl-4-[[3-(trifluoromethyl)phenyl]sulfonyl]-tetrahydro-pyran-2-yl]-pyridine], the “Activity Category: %-Inhib” value was “A (%-Inhibition >95%)”.

The same test, now with this note: HEK293, 3 μM test compound; alternative assay buffer 30 mM KCl (inactivated channel state); HEK293 cells stably expressing human CaV2.2; read-out: Activity Category: %-Inhib (CaV2.2) @3 μM @30 mM KCl.
Consider `CC1(S(=O)(=O)c2cc(F)cc(C(F)F)c2)CCOC(c2ncc(S(C)(=O)=O)cc2Cl)C1` (centres unmarked) [SC-216, 3-Chloro-2-[4-[[3-(difluoro-methyl)-5-fluoro-phenyl]sulfonyl]-4-methyl-tetrahydro-pyran-2-yl]-5-methylsulfonyl-pyridine], for which the inhibition at 3 µM was 40 to 75%. With `CC1(S(=O)(=O)c2cccc(OC(F)(F)F)c2)CCOC(c2ncc(S(C)(=O)=O)cc2Cl)C1` (centres unmarked) [SC-218, 3-Chloro-5-methylsulfonyl-2-[4-methyl-4-[[3-(trifluoromethyloxy)-phenyl]sulfonyl]-tetrahydro-pyran-2-yl]-pyridine], the inhibition at 3 µM is 75 to 95%.

Regarding `CC1(S(=O)(=O)c2cccc(OC(F)(F)F)c2)CCOC(c2ncc(C(F)(F)F)cc2S(C)(=O)=O)C1` (centres unmarked) [SC-220, 3-Methylsulfonyl-2-[4-methyl-4-[[3-(trifluoromethyloxy)-phenyl]sulfonyl]-tetrahydro-pyran-2-yl]-5-(trifluoromethyl)-pyridine], the inhibition at 3 µM was above 95%.

Take `CC1(S(=O)(=O)c2cccc(C(F)(F)F)c2)CCOC(c2ncc(S(C)(=O)=O)cc2C(F)(F)F)C1` (centres unmarked) [SC-222, 5-Methylsulfonyl-2-[4-methyl-4-[[3-(trifluoromethyl)phenyl]sulfonyl]-tetrahydro-pyran-2-yl]-3-(trifluoromethyl)-pyridine]: the inhibition at 3 µM was 75 to 95%. Same read-out and setting: the same measure for `COc1cc(S(C)(=O)=O)cnc1C1CC(C)(S(=O)(=O)c2cccc(C(F)(F)F)c2)CCO1` (centres unmarked) [SC-224, 3-Methoxy-5-methylsulfonyl-2-[4-methyl-4-[[3-(trifluoromethyl)phenyl]sulfonyl]-tetrahydro-pyran-2-yl]-pyridine]: 75 to 95%; for `CC1(S(=O)(=O)c2cccc(C(F)(F)F)c2)CCOC(c2ncc(Cl)cc2S(C)(=O)=O)C1` (centres unmarked) [SC-226, 5-Chloro-3-methylsulfonyl-2-[4-methyl-4-[[3-(trifluoromethyl)phenyl]sulfonyl]-tetrahydro-pyran-2-yl]-pyridine]: 75 to 95%; for `C[S+]([O-])c1cc(C(F)(F)F)cnc1C1CC(C)(S(=O)(=O)c2cccc(C(F)(F)F)c2)CCO1` (centres unmarked) [SC-228, 3-(Methylsulfinyl)-2-[4-methyl-4-[[3-(trifluoromethyl)phenyl]sulfonyl]-tetrahydro-pyran-2-yl]-5-(trifluoromethyl)-pyridine]: above 95%. Turning to `C[S+]([O-])c1cnc(C2CC(C)(S(=O)(=O)c3cccc(C(F)(F)F)c3)CCO2)c(Cl)c1` (centres unmarked) [SC-233, 3-Chloro-5-(methylsulfinyl)-2-[4-methyl-4-[[3-(trifluoromethyl)phenyl]sulfonyl]-tetrahydro-pyran-2-yl]-pyridine], the inhibition at 3 µM lay within 40 to 75%. The same measure, in the same setting: the same measure for `CC1(S(=O)(=O)c2cccc(C(F)(F)F)c2)CCOC(c2ncc(C(F)F)cc2Cl)C1` (centres unmarked) [SC-236, 3-Chloro-5-(difluoro-methyl)-2-[4-methyl-4-[[3-(trifluoromethyl)phenyl]sulfonyl]-tetrahydro-pyran-2-yl]-pyridine]: 75 to 95%.

For `CCC1(S(=O)(=O)c2cccc(C(F)(F)F)c2)CCOC(c2noc(C3CC3)n2)C1` (centres unmarked) [SC-238, 5-Cyclopropyl-3-[4-ethyl-4-[[3-(trifluoromethyl)phenyl]sulfonyl]-tetrahydro-pyran-2-yl]-[1,2,4]oxadiazole], the inhibition at 3 µM was in the range of 75 to 95%. On the same count and under the same terms, the same measure for `CC1(S(=O)(=O)c2cccc(C(F)(F)F)c2)CCOC(c2ccc(Cl)cn2)C1` (centres unmarked) [SC-243, 5-Chloro-2-[4-methyl-4-[[3-(trifluoromethyl)phenyl]sulfonyl]-tetrahydro-pyran-2-yl]-pyridine]: above 95%; for `COc1cc(OC)c(C2CC(C)(S(=O)(=O)c3cccc(C(F)(F)F)c3)CCO2)cn1` (centres unmarked) [SC-245, 2,4-Dimethoxy-5-[4-methyl-4-[[3-(trifluoromethyl)phenyl]sulfonyl]-tetrahydro-pyran-2-yl]-pyridine]: 75 to 95%; for `COc1cc(C)c(C2CC(C)(S(=O)(=O)c3cccc(C(F)(F)F)c3)CCO2)cn1` (centres unmarked) [SC-248, 2-Methoxy-4-methyl-5-[4-methyl-4-[[3-(trifluoromethyl)phenyl]sulfonyl]-tetrahydro-pyran-2-yl]-pyridine]: 75 to 95%.

With `COc1cc(O)c(C2CC(C)(S(=O)(=O)c3cccc(C(F)(F)F)c3)CCO2)cn1` (centres unmarked) [SC-251, 2-Methoxy-5-[4-methyl-4-[[3-(trifluoromethyl)phenyl]sulfonyl]-tetrahydro-pyran-2-yl]-pyridin-4-ol], the inhibition at 3 µM lay within 40 to 75%. As to `COc1cc(OC(F)F)c(C2CC(C)(S(=O)(=O)c3cccc(C(F)(F)F)c3)CCO2)cn1` (centres unmarked) [SC-253, 4-(Difluoro-methoxy)-2-methoxy-5-[4-methyl-4-[[3-(trifluoromethyl)phenyl]sulfonyl]-tetrahydro-pyran-2-yl]-pyridine], the inhibition at 3 µM was in the range of 75 to 95%. On the same count and under the same terms, the same measure for `COc1ncc(C2CC(C)(S(=O)(=O)c3cccc(C(F)(F)F)c3)CCO2)cc1F` (centres unmarked) [SC-255, 3-Fluoro-2-methoxy-5-[4-methyl-4-[[3-(trifluoromethyl)phenyl]sulfonyl]-tetrahydro-pyran-2-yl]-pyridine]: above 95%; for `COc1cc(F)c(C2CC(C)(S(=O)(=O)c3cccc(C(F)(F)F)c3)CCO2)cn1` (centres unmarked) [SC-257, 4-Fluoro-2-methoxy-5-[4-methyl-4-[[3-(trifluoromethyl)phenyl]sulfonyl]-tetrahydro-pyran-2-yl]-pyridine]: 75 to 95%.

The values above are taken from patent US9926302B2, “Heteroaryl substituted heterocyclyl sulfones” (priority 2014, dated 2018).
